According to the Deep4Chem optical property database:
Several values for one entry are separate records, joined by “and”; a condition that tells them apart may be missing. Identical values can stand only once.

Assay: photoluminescence quantum yield (fraction); solvent given as SMILES

Work on O=C1c2ccccc2-c2cc3ccccc3c(=O)n21 yielded a photoluminescence quantum yield (in CC#N) of 0.16, a photoluminescence quantum yield (in CO) of 0.02 and a photoluminescence quantum yield (in CS(C)=O) of 0.12. For the same compound, the photoluminescence quantum yield (in ClC(Cl)Cl) was 0.18.

OB(O)c1ccc(-c2ccc(N(c3ccccc3)c3ccccc3)cc2)cc1 gave a photoluminescence quantum yield (in C1CCCCC1) of 0.72, a photoluminescence quantum yield (in C1CCOC1) of 0.65 and a photoluminescence quantum yield (in CC#N) of 0.68. It also gave a photoluminescence quantum yield (in CCO) of 0.81, a photoluminescence quantum yield (in CCOC(C)=O) of 0.66 and a photoluminescence quantum yield (in CCOCC) of 0.65. For the same compound, the photoluminescence quantum yield (in CO) was 0.62.

COc1ccc(-c2cnc(-c3cccnc3)o2)cc1OC gave a photoluminescence quantum yield (in ClCCl) of 0.98.

In the case of N#Cc1c(-n2c3ccc(-c4ccccc4)cc3c3cc(-c4ccccc4)ccc32)c(-n2c3ccccc3c3ccccc32)c(-n2c3ccc(-c4ccccc4)cc3c3cc(-c4ccccc4)ccc32)c(-n2c3ccccc3c3ccccc32)c1-n1c2ccc(-c3ccccc3)cc2c2cc(-c3ccccc3)ccc21, the photoluminescence quantum yield (in Cc1ccccc1) is reported as 0.83.

Cc1ccc(-c2c3ccc([nH]3)c3nc(c(-c4ccc(C#N)cc4)c4ccc([nH]4)c4ccc([nH]4)c(-c4ccc(C)cc4)c4ccc2o4)C=C3)cc1 gave a photoluminescence quantum yield (in C1CCOC1) of 0.179, a photoluminescence quantum yield (in Cc1ccccc1) of 0.166 and a photoluminescence quantum yield (in c1ccccc1) of 0.175.

CN(C)c1ccc(C#Cc2cc(C#Cc3ccc(N(C)C)cc3)c3ccc4c(C#Cc5ccc(C(F)(F)F)cc5)cc(C#Cc5ccc(N(C)C)cc5)c5ccc2c3c54)cc1 gave a photoluminescence quantum yield (in ClCCl) of 0.65.

In the case of C/C(=C\c1ccc(Cl)cc1)c1nc2ccccc2o1, the photoluminescence quantum yield (in C1CCCCC1) is reported as 0.02 and the photoluminescence quantum yield (in CO) is reported as 0.003.

With O=c1c2cc(F)ccc2nc2n1[B-](F)(F)[n+]1ccccc1-2 the photoluminescence quantum yield (in CC#N) was 0.86 and the photoluminescence quantum yield (in ClCCl) was 0.99.

Work on COC(=O)CCC(NC(=O)CCNc1cccc2ccccc12)C(=O)OC (configuration not stated) yielded a photoluminescence quantum yield (in CCO) of 0.57.

Work on CC(C)(C)C1Nc2ccccc2C(=O)N1Cc1ccccc1 (configuration not stated) yielded a photoluminescence quantum yield (in CC#N) of 0.09, a photoluminescence quantum yield (in CO) of 0.034 and a photoluminescence quantum yield (in ClC(Cl)Cl) of 0.055. The photoluminescence quantum yield (in c1ccccc1) was 0.08.

In the case of [NH3+]C(Cc1ccc(O)cc1)C(=O)[O-] (configuration not stated), the photoluminescence quantum yield (in O) is reported as 0.13.

COc1ccccc1C1=[N+]2C(=C(c3ccccc3)c3c4c(c(-c5ccccc5OC)n3[B-]2(F)F)C2C=CC4CC2)C2=C1C1C=CC2CC1 (configuration not stated) gave a photoluminescence quantum yield (in ClCCl) of 0.87.

With CCC1=C(C)C2=Cc3c4ccccc4c4n3[B-](c3ccc5cc6ccccc6cc5c3)(Oc3ccccc3-4)[N+]2=C1C (configuration not stated) the photoluminescence quantum yield (in CC#N) was 0.66, the photoluminescence quantum yield (in CCCCCC) was 0.75 and the photoluminescence quantum yield (in Cc1ccccc1) was 0.68. For the same compound, the photoluminescence quantum yield (in ClCCl) was 0.76.

For c1ccc(-c2nnc(-c3ccc(N4c5ccccc5N(c5ccccc5)c5ccccc54)cc3)n2-c2ccccc2)cc1, the photoluminescence quantum yield (in Cc1ccccc1) was 0.07 and the photoluminescence quantum yield (in c1cc(-n2c3ccccc3c3ccccc32)cc(-n2c3ccccc3c3ccccc32)c1) was 0.42.

In the case of O=c1c2ccccc2c2c3c(cccc13)c(-c1ccccc1)c1c3cccc4cccc(c43)c12, the photoluminescence quantum yield (in CC#N) is reported as 0.91 and the photoluminescence quantum yield (in CO) is reported as 0.97.

In the case of C(=C1c2ccccc2-c2ccccc21)c1ccc(C=C2c3ccccc3-c3ccccc32)cc1, the photoluminescence quantum yield (in C1CCOC1) is reported as 0.0003.

c1ccc2c(c1)[nH]c1ccccc12 gave a photoluminescence quantum yield (in CC#N) of 0.62, a photoluminescence quantum yield (in CCCCCC) of 0.53 and a photoluminescence quantum yield (in CCO) of 0.44.

For c1ccc(-c2c3ccccc3c(-c3ccc4ccccc4c3)c3ccccc23)nc1, the photoluminescence quantum yield (in ClCCl) was 0.75.

For O=C(c1ccc(-n2c3ccc(-c4ccccc4)cc3c3cc(-c4ccccc4)ccc32)cc1)c1ccc(-n2c3ccc(-c4ccccc4)cc3c3cc(-c4ccccc4)ccc32)cc1, the photoluminescence quantum yield (in Cc1ccccc1) was 0.153.

For Cc1cc(C)c(C2=C3C=C(/C=C/C(=O)OC(C)(C)C)C=[N+]3[B-](F)(F)n3c2ccc3N2CCCC2)c(C)c1, the photoluminescence quantum yield (in ClCCl) was 0.57.

With Nc1ccc(N2C(=O)c3ccc4c5ccc6c7c(ccc(c8ccc(c3c48)C2=O)c75)C(=O)N(c2ccc(N)cc2)C6=O)cc1 the photoluminescence quantum yield (in CN(C)C=O) was 0.2.

In the case of c1ccc2cc(-c3cc(-c4nccs4)nc(-c4nccs4)c3)ccc2c1, the photoluminescence quantum yield (in CC#N) is reported as 0.36, the photoluminescence quantum yield (in CCCCCC) is reported as 0.289 and the photoluminescence quantum yield (in CO) is reported as 0.328. The photoluminescence quantum yield (in ClC(Cl)Cl) was 0.166.

COc1ccc(C#Cc2nc3ccccc3nc2-c2cn(C)c3ccccc23)cc1 showed a photoluminescence quantum yield (in C1CCOC1) of 0.19, a photoluminescence quantum yield (in CC#N) of 0.13 and a photoluminescence quantum yield (in CC(C)=O) of 0.16. The photoluminescence quantum yield (in CC(C)O) was 0.02, the photoluminescence quantum yield (in CCO) was 0.01 and the photoluminescence quantum yield (in CCOC(C)=O) was 0.17. The photoluminescence quantum yield (in CO) was 0.01, the photoluminescence quantum yield (in Cc1ccccc1) was 0.3 and the photoluminescence quantum yield (in ClCCl) was 0.19.

Work on COc1ccc(-c2nc3ccccc3nc2-c2ccc(OC)cc2)cc1 yielded a photoluminescence quantum yield (in ClC(Cl)Cl) of 0.18.

CCCN1/C(=C/C=C(/C=C/C2=[N+](CCC)c3ccccc3C2(C)C)c2cc[n+](C)cc2)C(C)(C)c2ccccc21 gave a photoluminescence quantum yield (in CO) of 0.14, a photoluminescence quantum yield (in CS(C)=O) of 0.12 and a photoluminescence quantum yield (in O) of 0.02.

In the case of CCOC(=O)COc1ccc(/C=C/c2c(CC)c(C)c3n2[B-](F)(F)[N+]2=C(c4[nH]c(C)c(CC)c4C)c4ccccc4C2=C3C)cc1, the photoluminescence quantum yield (in C1CCOC1) is reported as 0.28, the photoluminescence quantum yield (in CC#N) is reported as 0.09 and the photoluminescence quantum yield (in CCCCCC) is reported as 0.74. It also gave a photoluminescence quantum yield (in CO) of 0.2, a photoluminescence quantum yield (in Cc1ccccc1) of 0.71 and a photoluminescence quantum yield (in ClCCl) of 0.68.

In the case of COc1ccc(N(c2ccc(OC)cc2)c2ccc3ccc4c(B(c5c(C)cc(C)cc5C)c5c(C)cc(C)cc5C)ccc5ccc2c3c54)cc1, the photoluminescence quantum yield (in C1CCOC1) is reported as 0.19, the photoluminescence quantum yield (in CC(C)=O) is reported as 0.026 and the photoluminescence quantum yield (in CCCCCC) is reported as 1. For the same compound, the photoluminescence quantum yield (in Cc1ccccc1) was 0.85, the photoluminescence quantum yield (in ClC(Cl)Cl) was 0.67 and the photoluminescence quantum yield (in ClCCl) was 0.21.

For COc1cccc2cc(-c3cc4cccc(OC)c4oc3=O)oc12, the photoluminescence quantum yield (in CS(C)=O) was 0.11.

With Cc1cccc2nc(-c3ccc(-c4cc(=O)cc(-c5ccccc5)o4)cc3)c(NC3CCCCC3)n12 the photoluminescence quantum yield (in ClCCl) was 0.032.

N#Cc1ccc(N)cc1 showed a photoluminescence quantum yield (in C1CCCCC1) of 0.13, a photoluminescence quantum yield (in CC#N) of 0.12 and a photoluminescence quantum yield (in CCCCCC) of 0.09. It also gave a photoluminescence quantum yield (in CCO) of 0.041, a photoluminescence quantum yield (in O) of 0.0046 and a photoluminescence quantum yield (in OCC(F)(F)F) of 0.0052.

Work on Cc1c(C)c2c3ccccc3[nH]c2c2ccccc12 yielded a photoluminescence quantum yield (in ClCCl) of 0.156.

Compound c1ccc(N(c2ccccc2)c2ccc(-c3ccncn3)cc2)cc1 has a photoluminescence quantum yield (in ClCCl) of 0.55.

For COc1ccc(-n2nc(C(=O)N3CCCC3)c(N3CCCC3)n2)cc1, the photoluminescence quantum yield (in CC#N) was 0.555, the photoluminescence quantum yield (in CCCCCC) was 0.94 and the photoluminescence quantum yield (in CCO) was 0.9. The photoluminescence quantum yield (in CN(C)C=O) was 0.77 and the photoluminescence quantum yield (in ClC(Cl)Cl) was 0.64.

Work on CC(C)(C)C1CCC(=CS/C=C/c2ccc(-c3ccc(/C=C/SC=C4CCC(C(C)(C)C)CC4)cc3)cc2)CC1 (configuration not stated) yielded a photoluminescence quantum yield (in ClCCl) of 0.233.

For CN(C)c1ccc(C2=C3C=C(c4ccc(C=O)cc4)S[C@]34c3ccccc3[C@H]2c2ccccc24)cc1, the photoluminescence quantum yield (in ClCCl) was 0.54.

With O=C(c1ccc(N2c3ccccc3Oc3ccccc32)cc1)c1cccc(C(=O)c2ccc(N3c4ccccc4Oc4ccccc43)cc2)c1 the photoluminescence quantum yield (in Cc1ccccc1) was 0.36 and the photoluminescence quantum yield (in c1cc(-c2cccc(-n3c4ccccc4c4ccccc43)c2)cc(-n2c3ccccc3c3ccccc32)c1) was 0.71.

With Cc1ccccc1C1=C2C=c3c(oc4c3ccc3ccccc34)=[N+]2[B-](F)(F)n2c1cc1c3ccc4ccccc4c3oc12 the photoluminescence quantum yield (in C1CCCCC1) was 0.81, the photoluminescence quantum yield (in CCOC(C)=O) was 0.69 and the photoluminescence quantum yield (in CO) was 0.48.

CC(C)(C)c1ccc(/C=C/c2ccc(N(c3ccc(/C=C/c4ccc(C(C)(C)C)cc4)cc3)c3ccc(-c4nc5ccccc5nc4-c4ccc(N(c5ccc(/C=C/c6ccc(C(C)(C)C)cc6)cc5)c5ccc(/C=C/c6ccc(C(C)(C)C)cc6)cc5)cc4)cc3)cc2)cc1 gave a photoluminescence quantum yield (in C1CCOC1) of 0.72.

With O=c1oc2cc3ccccc3cc2nc1-c1ccccc1 the photoluminescence quantum yield (in CC#N) was 0.003, the photoluminescence quantum yield (in CCCCCC) was 0.003 and the photoluminescence quantum yield (in CO) was 0.003. For the same compound, the photoluminescence quantum yield (in c1ccccc1) was 0.003 and 0.002.

Work on CCC12N=N[C@](CC)(C3C4CCC(C4)C31)C1[C@@H]3CC[C@@H](C3)[C@H]12 (some centres not stated) yielded a photoluminescence quantum yield (in CC#N) of 0.19.

With CC(C)[Si](C#Cc1ccc(C#C[Si](C(C)C)(C(C)C)C(C)C)c2nc3c4ccccc4c(=O)c4ccccc4c3nc12)(C(C)C)C(C)C the photoluminescence quantum yield (in ClCCl) was 0.08.

Compound CC(C)(C)c1cc(-c2ccc3c(-c4cc(C(C)(C)C)cc(C(C)(C)C)c4)cc4c5cc(-c6cc(C(C)(C)C)cc(C(C)(C)C)c6)ccc5c(-c5cc(C(C)(C)C)cc(C(C)(C)C)c5)cc4c3c2)cc(C(C)(C)C)c1 has a photoluminescence quantum yield (in ClCCl) of 0.609.

C(#Cc1cccc(C#Cc2ccc(-n3c4ccccc4c4ccccc43)cc2)c1)c1ccc(-n2c3ccccc3c3ccccc32)cc1 gave a photoluminescence quantum yield (in ClCCl) of 0.8.

CCCCCCCCCCCCN1C(=O)c2c(c3ccc4cc(-c5ccccc5)c(OC)cc4c3c3c2ccc2cc(-c4ccccc4)c(OC)cc23)C1=O showed a photoluminescence quantum yield (in ClCCl) of 0.148.

For CCCCCCCCOc1ccc2c3cccc4c(OCCCCCCCC)ccc(c5cccc1c52)c43, the photoluminescence quantum yield (in C1CCOC1) was 0.94, the photoluminescence quantum yield (in Cc1ccccc1) was 0.9 and the photoluminescence quantum yield (in ClC(Cl)(Cl)Cl) was 0.08. The photoluminescence quantum yield (in ClC(Cl)Cl) was 0.69, the photoluminescence quantum yield (in ClCCl) was 0.81 and the photoluminescence quantum yield (in c1ccncc1) was 0.9.

Compound CC(C)[Si](C#Cc1ccc(-c2c3cccc4c5cccc6c(-c7ccc(C#C[Si](C(C)C)(C(C)C)C(C)C)cc7)c7cccc8c9cccc2c9c(c34)c(c65)c78)cc1)(C(C)C)C(C)C has a photoluminescence quantum yield (in Cc1ccccc1) of 0.38.

With CCC1(CC)c2ccccc2-c2c1c1c(c3c2C(CC)(CC)c2cc(/C=C/c4cccs4)ccc2-3)C(CC)(CC)c2ccccc2-1 the photoluminescence quantum yield (in C1CCOC1) was 0.23.

F[B-]1(F)n2cccc2C(c2c3ccccc3cc3ccccc23)=C2C=CC=[N+]21 showed a photoluminescence quantum yield (in CCCCCC) of 0.135, a photoluminescence quantum yield (in Cc1ccccc1) of 0.008 and a photoluminescence quantum yield (in ClCCl) of 0.002.

CC(C)(C)c1cc(-c2cc3c(cc(-c4cc(C(C)(C)C)cc(C(C)(C)C)c4)n3-c3ccc(C(=C(c4ccccc4)c4ccccc4)c4ccccc4)cc3)n2-c2ccc(C(=C(c3ccccc3)c3ccccc3)c3ccccc3)cc2)cc(C(C)(C)C)c1 showed a photoluminescence quantum yield (in ClCCl) of 0.0013.

In the case of F[B-]1(F)OC(c2ccc(N3CCCCC3)cc2)=Cc2cccc[n+]21, the photoluminescence quantum yield (in ClC(Cl)Cl) is reported as 0.612.

Compound O=CC1=Cc2cocc2C=C(C=O)C1 has a photoluminescence quantum yield (in ClC(Cl)Cl) of 0.

Compound COc1ccc(-c2c3ccc([nH]3)c3nc(c(-c4ccc([N+](=O)[O-])cc4)c4ccc([nH]4)c4ccc([nH]4)c(-c4ccc(OC)cc4)c4ccc2o4)C=C3)cc1 has a photoluminescence quantum yield (in C1CCOC1) of 0.013, a photoluminescence quantum yield (in Cc1ccccc1) of 0.075 and a photoluminescence quantum yield (in c1ccccc1) of 0.08.
